Each compound was assayed against human TYK2 (JH2domain-pseudokinase) (Homo sapiens (Human), UniProt P29597) (assay: TYK2 JH2 Domain Binding Assay (KINOMEscan, DiscoveRx)). Details: 11-point dilution, duplicate.
Procedure, shortened: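 Kd from duplicate 11-point 3-fold dilutions starting at 30,000 nM, fitted by Hill equation with slope fixed at −1. Compounds (final 0.9% DMSO) displace DNA-tagged HEK293-expressed TYK2 JH2 fusion (<0.1 nM) from ligand-coated beads over 1 h at room temperature; eluted kinase read by qPCR.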

human TYK2 (JH2domain-pseudokinase), sequence (P29597 556-888): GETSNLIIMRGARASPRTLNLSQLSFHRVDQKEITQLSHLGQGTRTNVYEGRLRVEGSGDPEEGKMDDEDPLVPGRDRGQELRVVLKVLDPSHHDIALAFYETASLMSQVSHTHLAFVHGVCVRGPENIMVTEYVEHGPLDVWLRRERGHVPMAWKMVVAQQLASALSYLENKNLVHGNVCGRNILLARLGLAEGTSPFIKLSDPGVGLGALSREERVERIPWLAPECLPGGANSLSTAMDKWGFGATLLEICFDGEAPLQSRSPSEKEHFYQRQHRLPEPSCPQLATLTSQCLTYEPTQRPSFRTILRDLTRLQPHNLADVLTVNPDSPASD

Kd [nM] | Structure (SMILES)
0.5 to 1 | Cc1cn(C)c(-c2ccc(Nc3cc(NC(=O)C4CC4)nc4[nH]c(C)nc34)c(N(C)S(C)(=O)=O)c2)n1 [I-176, N-(7-((4-(1,4-dimethyl-1H-imidazol-2-yl)-2-(N-methylmethyl-sulfonamido)phenyl)amino)-2-methyl-3H-imidazo[4,5-b]pyridin-5-yl)cyclopropane-carboxamide]
0.5 to 1 | CS(=O)(=O)c1cc(F)ccc1Nc1cc(NC(=O)C2CC2)nc2[nH]c(C(F)F)nc12 [I-85, N-(2-(difluoromethyl)-7-((4-fluoro-2-(methylsulfonyl)phenyl)amino)-3H-imidazo[4,5-b]pyridin-5-yl)cyclopropanecarboxamide]
1 to 10 | COc1c(Nc2cc(Nc3ccn(C)n3)nc3[nH]cnc23)cccc1-c1ncn(C)n1 [I-8, N7-(2-methoxy-3-(1-methyl-1H-1,2,4-triazol-3-yl)phenyl)-N5-(1-methyl-1H-pyrazol-3-yl)-3H-imidazo[4,5-b]pyridine-5,7-diamine]
1 to 10 | COc1c(Nc2cc(Nc3cccc(C#N)n3)nc3[nH]c(C(F)F)nc23)cccc1-c1nc(C)cs1 [I-349]
< 0.1 | Cc1nc2c(Nc3ccc(C4CCCCO4)cc3S(C)(=O)=O)cc(NC(=O)C3CC3)nc2[nH]1 (stereo not shown) [I-387, N-(2-methyl-7-((2-(methylsulfonyl)-4-(tetrahydro-2H-pyran-2-yl)phenyl)amino)-3H-imidazo[4,5-b]pyridin-5-yl)cyclopropanecarboxamide]
1 to 10 | C#Cc1cccc(Nc2cc(Nc3ccccc3S(C)(=O)=O)c3nc(C(F)F)[nH]c3n2)n1 [I-546, 2-(difluoromethyl)-N5-(6-ethynylpyridin-2-yl)-N7-(2-(methylsulfonyl)phenyl)-3H-imidazo[4,5-b]pyridine-5,7-diamine]
0.1 to 0.5 | COc1c(Nc2cc(Nc3cccc(C#N)n3)nc3[nH]c(C(F)F)nc23)cccc1-c1cnn(C)n1 [I-574, 6-((2-(difluoromethyl)-7-((2-methoxy-3-(2-methyl-2H-1,2,3-triazol-4-yl)phenyl)amino)-3H-imidazo[4,5-b]pyridin-5-yl)amino)picolinonitrile]
0.1 to 0.5 | Cc1nc2c(Nc3ccccc3S(C)(=O)=O)cc(Nc3cccc(C(F)(F)F)n3)nc2[nH]1 [I-600, 2-methyl-N7-(2-(methylsulfonyl)phenyl)-N5-(6-(trifluoromethyl)pyridin-2-yl)-3H-imidazo[4,5-b]pyridine-5,7-diamine]
1 to 10 | CS(=O)(=O)c1cc(C2CC2)ccc1Nc1cc(Nc2cccc(C(F)(F)F)n2)nc2[nH]c(C(F)F)nc12 [I-272]
< 0.1 | Cc1cc(-c2ccc(Nc3cc(Nc4cc5n(n4)CCOC5)nc4[nH]c(C(F)F)nc34)c(S(C)(=O)=O)c2)nn1C [I-526]
0.1 to 0.5 | CN(c1cc(-c2cncn2C)ccc1Nc1cc(NC(=O)[C@H]2C[C@@H]2F)nc2[nH]c(C(F)F)nc12)S(C)(=O)=O [I-370, (1R,2S)—N-(2-(difluoromethyl)-7-((4-(1-methyl-1H-imidazol-5-yl)-2-(N-methylmethylsulfonamido)phenyl)amino)-3H-imidazo[4,5-b]pyridin-5-yl)-2-fluorocyclopropane-1-carboxamide]
0.1 to 0.5 | COc1c(Nc2cc(Nc3ccc(N4CCC4)c(C#N)n3)nc3[nH]c(C)nc23)cccc1-c1nnn(C)n1 [I-113, 3-(azetidin-1-yl)-6-((7-((2-methoxy-3-(2-methyl-2H-tetrazol-5-yl)phenyl)amino)-2-methyl-3H-imidazo[4,5-b]pyridin-5-yl)amino)picolinonitrile]
1 to 10 | CC1(C)CSC(c2ccc(Nc3cc(NC(=O)C4CC4)nc4[nH]c(C(F)F)nc34)c(S(C)(=O)=O)c2)=N1 [I-567, N-(2-(difluoromethyl)-7-((4-(4,4-dimethyl-4,5-dihydrothiazol-2-yl)-2-(methylsulfonyl)phenyl)amino)-3H-imidazo[4,5-b]pyridin-5-yl)cyclopropanecarboxamide]
> 10 | CS(=O)(=O)c1cc(C2CCC2)ccc1Nc1cc(NC(=O)[C@H]2CC2(F)F)nc2[nH]c(C(F)F)nc12 [I-319, (R)—N-(7-((4-cyclobutyl-2-(methylsulfonyl)phenyl)amino)-2-(difluoromethyl)-3H-imidazo[4,5-b]pyridin-5-yl)-2,2-difluorocyclopropane-1-carboxamide]
0.1 to 0.5 | CC(C)c1ccc(Nc2cc(Nc3ccccc3S(C)(=O)=O)c3nc(C(F)F)[nH]c3n2)nc1C#N [I-489, 6-((2-(difluoromethyl)-7-((2-(methylsulfonyl)phenyl)amino)-3H-imidazo[4,5-b]pyridin-5-yl)amino)-3-isopropylpicolinonitrile]
< 0.1 | CN=[S@@](C)(=O)c1cc(-c2cnn(C)c2C)ccc1Nc1cc(NC(=O)C2CC2)nc2[nH]c(C(F)F)nc12 [I-637]
0.1 to 0.5 | Cc1nc2c(Nc3ccc([C@@H]4CCCO4)cc3S(C)(=O)=O)cc(NC(=O)[C@H]3CC3(F)F)nc2[nH]1 [I-427, (R)-2,2-difluoro-N-(2-methyl-7-((2-(methylsulfonyl)-4-((S)-tetrahydrofuran-2-yl)phenyl)amino)-3H-imidazo[4,5-b]pyridin-5-yl)cyclopropane-1-carboxamide]
0.1 to 0.5 | Cn1cnc(-c2ccc(Nc3cc(NC(=O)[C@@H]4C[C@@H]4F)nc4[nH]c(C(F)F)nc34)c(S(C)(=O)=O)c2)c1 [I-322, (1S,2S)—N-(2-(difluoromethyl)-7-((4-(1-methyl-1H-imidazol-4-yl)-2-(methylsulfonyl)phenyl)amino)-3H-imidazo[4,5-b]pyridin-5-yl)-2-fluorocyclopropane-1-carboxamide]
0.1 to 0.5 | CN(c1cc(C2CCOCC2)ccc1Nc1cc(NC(=O)C2CC2)nc2[nH]c(C(F)F)nc12)S(C)(=O)=O [I-182, N-(2-(difluoromethyl)-7-((2-(N-methylmethylsulfonamido)-4-(tetrahydro-2H-pyran-4-yl)phenyl)amino)-3H-imidazo[4,5-b]pyridin-5-yl)cyclopropanecarboxamide]
0.5 to 1 | Cc1nc2c(Nc3ccc([C@H]4CCCCO4)cc3S(C)(=O)=O)cc(NC(=O)[C@H]3CC3(F)F)nc2[nH]1 [I-256, (R)-2,2-difluoro-N-(2-methyl-7-((2-(methylsulfonyl)-4-((R)-tetrahydro-2H-pyran-2-yl)phenyl)amino)-3H-imidazo[4,5-b]pyridin-5-yl)cyclopropane-1-carboxamide]
1 to 10 | COc1cc(-c2cc(C)n(C)n2)ccc1Nc1cc(NC(=O)C2CC2)nc2[nH]c(C)nc12 [I-590, N-(7-((4-(1,5-dimethyl-1H-pyrazol-3-yl)-2-methoxyphenyl)amino)-2-methyl-3H-imidazo[4,5-b]pyridin-5-yl)cyclopropanecarboxamide]
< 0.1 | CN(c1cc(-c2cnn(C)c2)ccc1Nc1cc(NC(=O)[C@@H]2C[C@@H]2F)nc2[nH]c(C(F)F)nc12)S(C)(=O)=O (stereo in doubt) [I-235, (1S,2S)—N-(2-(difluoromethyl)-7-((4-(1-methyl-1H-pyrazol-4-yl)-2-(N-methylmethylsulfonamido)phenyl)amino)-3H-imidazo[4,5-b]pyridin-5-yl)-2-fluorocyclopropane-1-carboxamide]
1 to 10 | COc1c(Nc2cc(Nc3ccc(C)cn3)nc3[nH]c(C)nc23)cccc1-c1nnn(C)n1 [I-101, N7-(2-methoxy-3-(2-methyl-2H-tetrazol-5-yl)phenyl)-2-methyl-N5-(5-methylpyridin-2-yl)-3H-imidazo[4,5-b]pyridine-5,7-diamine]
1 to 10 | COc1c(Nc2cc(Nc3ccc(N4CCC4)cn3)nc3[nH]c(C(F)F)nc23)cccc1-c1nnn(C)n1 [I-22, N5-(5-(azetidin-1-yl)pyridin-2-yl)-2-(difluoromethyl)-N7-(2-methoxy-3-(2-methyl-2H-tetrazol-5-yl)phenyl)-3H-imidazo[4,5-b]pyridine-5,7-diamine]
< 0.1 | Cc1cc(Nc2cc(Nc3ccc(C4CCCCO4)cc3S(C)(=O)=O)c3nc(C)[nH]c3n2)nc(C)n1 (stereo not shown) [I-367, N5-(2,6-dimethylpyrimidin-4-yl)-2-methyl-N7-(2-(methylsulfonyl)-4-(tetrahydro-2H-pyran-2-yl)phenyl)-3H-imidazo[4,5-b]pyridine-5,7-diamine]

Structure (SMILES) | Kd [nM]
COc1c(Nc2cc(NC(=O)C3CC3)nc3[nH]c(C(F)F)nc23)cccc1-n1nc(C)nc1C [I-54, N-(2-(difluoromethyl)-7-((3-(3,5-dimethyl-1H-1,2,4-triazol-1-yl)-2-methoxyphenyl)amino)-3H-imidazo[4,5-b]pyridin-5-yl)cyclopropanecarboxamide] | > 10
CC1(C)CC[C@@H](c2ccc(Nc3cc(NC(=O)C4CC4)nc4[nH]c(C(F)F)nc34)c(S(C)(=O)=O)c2)O1 [I-499, (S)—N-(2-(difluoromethyl)-7-((4-(5,5-dimethyltetrahydrofuran-2-yl)-2-(methylsulfonyl)phenyl)amino)-3H-imidazo[4,5-b]pyridin-5-yl)cyclopropanecarboxamide] | 1 to 10
Cc1nc2c(Nc3ccccc3[S+](C)[O-])cc(NC(=O)C3CC3)nc2[nH]1 (stereo not shown) [I-336, N-(2-methyl-7-((2-(methylsulfinyl)phenyl)amino)-3H-imidazo[4,5-b]pyridin-5-yl)cyclopropanecarboxamide] | 1 to 10
Cc1nc2c(Nc3ccccc3[S@@+](C)[O-])cc(NC(=O)C3CC3)nc2[nH]1 [I-442, (R)—N-(2-methyl-7-((2-(methylsulfinyl)phenyl)amino)-3H-imidazo[4,5-b]pyridin-5-yl)cyclopropanecarboxamide] | > 10
Cc1cc(Nc2cc(Nc3ccc(-c4nc(C)sc4C)cc3S(C)(=O)=O)c3nc(C(F)F)[nH]c3n2)nc(C)n1 [I-578, 2-(difluoromethyl)-N5-(2,6-dimethylpyrimidin-4-yl)-N7-(4-(2,5-dimethylthiazol-4-yl)-2-(methylsulfonyl)phenyl)-3H-imidazo[4,5-b]pyridine-5,7-diamine] | 0.1 to 0.5
Cc1nc2c(Nc3ccc([C@@H]4CCC(C)(C)CO4)cc3S(C)(=O)=O)cc(Nc3cnc(C)c(C)n3)nc2[nH]1 [I-610, (S)—N5-(5,6-dimethylpyrazin-2-yl)-N7-(4-(5,5-dimethyltetrahydro-2H-pyran-2-yl)-2-(methylsulfonyl)phenyl)-2-methyl-3H-imidazo[4,5-b]pyridine-5,7-diamine] | 1 to 10

Source: patent US10647713B2 (Nimbus Lakshmi, Inc., priority 2016, dated 2020)
